From ChEMBL document CHEMBL1649335, “Discovery of {1-[4-(2-{hexahydropyrrolo[3,4-c]pyrrol-2(1H)-yl}-1H-benzimidazol-1-yl)piperidin-1-yl]cyclooctyl}methanol, systemically potent novel non-peptide agonist of nociceptin/orphanin FQ receptor as analgesic for the treatment of neuropathic pain: design, synthesis, and structure-activity …” (Bioorg Med Chem, 2010)
Calls of active or inactive are those of the source.

Key:
[1] = tested on: Rattus norvegicus; assay: Antiallodynic activity against von Frey hair mechanically stimulated neuropathic pain in sc dosed Sprague-Dawley rat assessed as increase of response threshold after 30 mins; format: functional; details: 0.5 h
[2] = tested on: Rattus norvegicus; assay: Antiallodynic activity against von Frey hair mechanically stimulated neuropathic pain in Sprague-Dawley rat assessed as assessed as minimum effective dose to increase of response threshold per site at 5.5 to 170 nmol/site, icv after 1 hr; format: functional, organism-based
[3] = tested on: Rattus norvegicus; assay: Toxicity in von Frey hair mechanically stimulated neuropathic pain Sprague-Dawley rat model assessed as respiratory depression at up to 170 nmol/site, administered intrathecally; format: organism-based; details: in vivo, icv_or_intrathecal
[4] = species: Rattus norvegicus; assay: Inhibition of rat central benzodiazepine receptor at 1 uM relative to control
[5] = tested on: Rattus norvegicus; assay: Antiallodynic activity against von Frey hair mechanically stimulated neuropathic pain in Sprague-Dawley rat assessed as effect on allodynia in contralateral paw at 1 to 30 mg/kg, sc after 30 mins; format: functional, organism-based
[6] = target: Adrenergic receptor alpha-1 (Rattus norvegicus) (UniProt P15823+P23944+P43140); assay: Inhibition of rat alpha1 adrenoceptor at 1 uM relative to control
[7] = tested on: Rattus norvegicus; assay: Antiallodynic activity against von Frey hair mechanically stimulated neuropathic pain in icv dosed Sprague-Dawley rat assessed as assessed as minimum effective dose to increase of response threshold per site after 20 mins; format: functional
[8] = tested on: Rattus norvegicus; assay: Antiallodynic activity against von Frey hair mechanically stimulated neuropathic pain in sc dosed Sprague-Dawley rat assessed as increase of response threshold after 2 hrs; format: functional
[9] = species: Rattus norvegicus; assay: Inhibition of rat sigma receptor at 1 uM relative to control
[10] = target: Muscarinic acetylcholine receptor (Rattus norvegicus) (UniProt P08482+P08483+P08485+P08911+P10980); assay: Inhibition of rat muscarinic M receptor at 1 uM relative to control
[11] = species: Rattus norvegicus; assay: Inhibition of rat K+ATP channel at 1 uM relative to control
[12] = target: Sodium-dependent noradrenaline transporter (Homo sapiens) (UniProt P23975); assay: Inhibition of human norepinephrine transporter at 1 uM relative to control
Sodium-dependent noradrenaline transporter (Homo sapiens), sequence (P23975 whole entry): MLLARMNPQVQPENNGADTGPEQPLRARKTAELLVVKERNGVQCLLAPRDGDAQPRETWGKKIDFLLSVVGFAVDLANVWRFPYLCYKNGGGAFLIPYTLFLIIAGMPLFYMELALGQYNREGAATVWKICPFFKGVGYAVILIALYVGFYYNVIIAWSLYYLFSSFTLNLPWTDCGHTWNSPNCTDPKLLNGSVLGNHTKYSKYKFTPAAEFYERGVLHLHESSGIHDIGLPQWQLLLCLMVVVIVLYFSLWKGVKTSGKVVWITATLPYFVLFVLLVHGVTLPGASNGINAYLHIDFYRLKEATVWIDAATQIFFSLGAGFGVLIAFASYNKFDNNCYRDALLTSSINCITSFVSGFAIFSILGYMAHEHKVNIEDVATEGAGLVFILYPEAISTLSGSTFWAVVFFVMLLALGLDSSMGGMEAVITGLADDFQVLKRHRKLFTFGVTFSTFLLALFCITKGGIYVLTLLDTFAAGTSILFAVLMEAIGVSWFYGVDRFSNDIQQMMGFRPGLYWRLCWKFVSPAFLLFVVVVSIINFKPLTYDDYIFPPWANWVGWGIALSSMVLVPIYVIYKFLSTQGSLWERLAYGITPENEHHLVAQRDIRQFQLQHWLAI

[13] = tested on: Rattus norvegicus; assay: Antiallodynic activity against von Frey hair mechanically stimulated neuropathic pain in sc dosed Sprague-Dawley rat assessed as increase of response threshold after 4 hrs; format: functional
[14] = target: Vasopressin V1a receptor (Homo sapiens) (UniProt P37288); assay: Inhibition of human vasopressin V1A receptor at 1 uM relative to control
Vasopressin V1a receptor (Homo sapiens), sequence (P37288 whole entry, looked up): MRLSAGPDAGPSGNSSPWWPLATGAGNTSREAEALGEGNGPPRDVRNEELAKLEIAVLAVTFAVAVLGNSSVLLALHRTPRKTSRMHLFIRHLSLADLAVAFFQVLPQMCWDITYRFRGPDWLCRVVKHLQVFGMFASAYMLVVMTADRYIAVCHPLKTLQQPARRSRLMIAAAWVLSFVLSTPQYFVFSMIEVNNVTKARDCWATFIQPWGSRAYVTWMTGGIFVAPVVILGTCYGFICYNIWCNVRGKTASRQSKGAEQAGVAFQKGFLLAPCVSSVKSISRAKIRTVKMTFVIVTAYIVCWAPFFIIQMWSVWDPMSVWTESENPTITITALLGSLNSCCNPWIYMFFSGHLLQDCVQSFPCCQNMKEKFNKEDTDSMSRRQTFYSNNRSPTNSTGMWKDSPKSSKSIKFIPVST

[15] = tested on: Rattus norvegicus; assay: Antiallodynic activity against von Frey hair mechanically stimulated neuropathic pain in Sprague-Dawley rat assessed as increase of response threshold per site at 5.5 to 170 nmol/site, icv after 1 hr; format: functional, organism-based
[16] = tested on: Rattus norvegicus; assay: Toxicity in von Frey hair mechanically stimulated neuropathic pain Sprague-Dawley rat model assessed as sedation effect at up to 170 nmol/site, administered intrathecally; format: organism-based; details: in vivo, icv_or_intrathecal
[17] = target: Histamine H1 receptor (Cavia porcellus) (UniProt P31389); assay: Inhibition of guinea pig histamine H1 receptor at 1 uM relative to control
Histamine H1 receptor (Cavia porcellus), sequence (P31389 whole entry): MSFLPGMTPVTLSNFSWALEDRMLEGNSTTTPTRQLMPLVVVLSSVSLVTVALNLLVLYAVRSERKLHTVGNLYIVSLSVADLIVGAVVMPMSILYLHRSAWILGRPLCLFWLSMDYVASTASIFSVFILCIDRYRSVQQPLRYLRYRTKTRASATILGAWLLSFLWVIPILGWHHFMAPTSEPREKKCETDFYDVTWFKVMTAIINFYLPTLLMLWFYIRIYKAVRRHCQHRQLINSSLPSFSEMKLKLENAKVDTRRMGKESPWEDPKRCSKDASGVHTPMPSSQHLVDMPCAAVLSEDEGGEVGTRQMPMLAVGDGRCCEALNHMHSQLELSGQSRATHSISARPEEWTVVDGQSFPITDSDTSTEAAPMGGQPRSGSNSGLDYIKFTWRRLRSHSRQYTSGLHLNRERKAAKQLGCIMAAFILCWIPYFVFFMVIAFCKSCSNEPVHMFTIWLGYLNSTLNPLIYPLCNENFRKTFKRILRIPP

[18] = target: Glutamate NMDA receptor (Rattus norvegicus) (UniProt P35439+Q00959+Q00960+Q00961+Q62645+Q8VHN2+Q9R1M7); assay: Inhibition of rat NMDA receptor at 1 uM relative to control; format: protein-complex assay
[19] = species: Homo sapiens; assay: Inhibition of human muscle-type nicotinic acetylcholine receptor at 1 uM relative to control
[20] = target: 5-hydroxytryptamine receptor 2A (Homo sapiens) (UniProt P28223); assay: Inhibition of human 5-HT2A receptor at 1 uM relative to control
5-hydroxytryptamine receptor 2A (Homo sapiens), sequence (P28223 whole entry): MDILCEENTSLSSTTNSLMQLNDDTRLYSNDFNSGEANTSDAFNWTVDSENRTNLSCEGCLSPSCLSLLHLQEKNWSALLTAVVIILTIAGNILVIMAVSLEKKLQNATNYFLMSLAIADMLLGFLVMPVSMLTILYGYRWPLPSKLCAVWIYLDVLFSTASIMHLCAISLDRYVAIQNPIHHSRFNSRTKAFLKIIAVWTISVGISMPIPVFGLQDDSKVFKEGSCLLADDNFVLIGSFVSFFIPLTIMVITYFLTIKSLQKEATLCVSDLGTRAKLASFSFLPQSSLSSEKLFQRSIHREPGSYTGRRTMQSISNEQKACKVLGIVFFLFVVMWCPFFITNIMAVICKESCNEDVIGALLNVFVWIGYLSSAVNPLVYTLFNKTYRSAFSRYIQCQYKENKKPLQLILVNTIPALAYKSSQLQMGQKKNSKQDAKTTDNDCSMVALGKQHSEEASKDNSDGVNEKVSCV

[21] = target: Adenosine receptor A2a (Homo sapiens) (UniProt P29274); assay: Inhibition of human adenosine A2A receptor at 1 uM relative to control
Adenosine receptor A2a (Homo sapiens), sequence (P29274 whole entry): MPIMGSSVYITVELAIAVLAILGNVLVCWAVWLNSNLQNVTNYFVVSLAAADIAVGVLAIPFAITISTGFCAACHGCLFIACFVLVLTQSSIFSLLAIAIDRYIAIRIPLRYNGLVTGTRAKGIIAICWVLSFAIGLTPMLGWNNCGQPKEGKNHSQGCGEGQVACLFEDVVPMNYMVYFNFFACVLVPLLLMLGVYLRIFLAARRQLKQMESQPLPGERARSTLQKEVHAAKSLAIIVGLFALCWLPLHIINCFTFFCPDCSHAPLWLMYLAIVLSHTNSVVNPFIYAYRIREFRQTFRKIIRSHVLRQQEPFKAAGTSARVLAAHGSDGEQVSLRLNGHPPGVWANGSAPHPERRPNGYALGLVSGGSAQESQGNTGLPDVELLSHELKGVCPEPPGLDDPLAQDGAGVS

[22] = tested on: Rattus norvegicus; assay: Antiallodynic activity against von Frey hair mechanically stimulated neuropathic pain in icv dosed Sprague-Dawley rat assessed as increase of response threshold per site after 20 mins; format: functional
[23] = tested on: Rattus norvegicus; assay: Antiallodynic activity against von Frey hair mechanically stimulated neuropathic pain in Sprague-Dawley rat assessed as increase of response threshold at 1 to 30 mg/kg, sc; format: functional, organism-based; details: TDE = time-dependent effect

## OCC1(N2CCC(n3c(N4CC5CNCC5C4)nc4ccccc43)CC2)CCCCCCC1 (stereo not drawn)
[1]
  ED50: 26.8 mg/kg
[2]
  MED: inactive
[3]
  Activity: Non-toxic
[4]
  inhibition: < 10%
[5]
  Activity: inactive
[6]
  inhibition: 16%
[7]
  MED: 55 nmol
[8]
  ED50: > 30 mg/kg
[9]
  inhibition: 10%
[10]
  inhibition: 38%
[11]
  inhibition: < 10%
[12]
  inhibition: < 10%
[13]
  ED50: > 30 mg/kg
[14]
  inhibition: < 10%
[15]
  ED50: inactive
[16]
  Activity: Non-toxic
[17]
  inhibition: < 10%
[18]
  inhibition: < 10%
[19]
  inhibition: 21%
[20]
  inhibition: < 10%
[21]
  inhibition: < 10%
[22]
  ED50: 170 nmol
[23]
  Activity: tde
